Some test systems named below: SF-268 CNS; SF-539 CNS; SNB-19 CNS; LOX IMVI melanoma; SN12C renal; SW-620 colon; COLO 205 colon; MOLT-4 leukemia; T-47D breast; A498 renal.
What all share (test): NCI-60 cell line screen, 48 h

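Cultured in 96-well plates, cells were exposed to test compound for 48 hours across five concentrations. At the GI50, growth is halved. TGI is the concentration that stops growth completely.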

On to `NC(=S)N/N=C/c1ccc(OC(=O)COc2ccccc2)cn1`, for which the GI50 in the assay on SF-268 CNS was 2.95 µM; with SF-539 CNS, 2.94 µM; in the assay on SNB-19 CNS, 28.5 µM; in the assay on LOX IMVI melanoma, 3.48 µM; in the assay on SN12C renal, 5.3 µM; in the assay on SW-620 colon it was 5.02 µM. For the same compound, the GI50 in the assay with COLO 205 colon is 33.3 µM; with MOLT-4 leukemia it was 2.53 µM; in the assay on T-47D breast, 7.45 µM; with A498 renal, 14.8 µM. Moreover, the TGI is over 100 µM in the assay with SF-268 CNS; 10.9 µM with SF-539 CNS; over 100 µM in the assay on SNB-19 CNS; over 100 µM with LOX IMVI melanoma; over 100 µM with SN12C renal; over 100 µM with SW-620 colon. The TGI in the assay with COLO 205 colon was over 100 µM; in the assay with MOLT-4 leukemia it was over 100 µM; in the assay on T-47D breast it was over 100 µM; in the assay on A498 renal, 81 µM.
`CC(=O)Oc1ccccc1C(=O)NCCC[Se]C#N`: the GI50 is 1.84 µM in the assay on SF-268 CNS; 2.04 µM with SF-539 CNS; 1.57 µM in the assay with SNB-19 CNS; 1.51 µM in the assay with LOX IMVI melanoma; 3.2 µM in the assay on SN12C renal; 3.47 µM in the assay with SW-620 colon. The GI50 with COLO 205 colon was 12.8 µM; with MOLT-4 leukemia, 2.46 µM; in the assay on T-47D breast, 3.19 µM; in the assay with A498 renal it was 2.1 µM. For the same compound, the TGI in the assay on SF-268 CNS came out at 4.06 µM; in the assay on SF-539 CNS, 3.87 µM; with SNB-19 CNS it was 2.95 µM; in the assay with LOX IMVI melanoma it was 5.26 µM; with SN12C renal it was 12.4 µM; in the assay on COLO 205 colon, 29.9 µM. The TGI amounted to 8.53 µM in the assay with MOLT-4 leukemia, 17.8 µM in the assay on T-47D breast and 4.08 µM in the assay on A498 renal.
Regarding `O=C(O)c1cc2cc(O)ccc2[nH]1`, the GI50 in the assay with SF-268 CNS, in the assay with SF-539 CNS, in the assay on SNB-19 CNS, with LOX IMVI melanoma, in the assay with SN12C renal and with SW-620 colon was over 100 µM in each case. Besides, the GI50 in the assay on COLO 205 colon, in the assay on MOLT-4 leukemia, in the assay with T-47D breast and with A498 renal was over 100 µM throughout. The TGI with SF-268 CNS, in the assay with SF-539 CNS, in the assay on SNB-19 CNS, with LOX IMVI melanoma, in the assay on SN12C renal and with SW-620 colon was over 100 µM in each case. In addition, the TGI with COLO 205 colon, in the assay with MOLT-4 leukemia, in the assay on T-47D breast and with A498 renal was over 100 µM each time.
Take `N#CSCC1CC(O)(c2ccccc2)CC(c2ccc(Cl)cc2)O1` (centres undefined): the GI50 in the assay with SF-268 CNS was 1.8 µM; in the assay with SF-539 CNS, 1.54 µM; in the assay with SNB-19 CNS, 6.9 µM; with LOX IMVI melanoma, 1.59 µM; in the assay with SN12C renal it was 1.81 µM; in the assay on SW-620 colon, 1.83 µM. In addition, the GI50 in the assay on COLO 205 colon was 1.91 µM; in the assay on MOLT-4 leukemia, 1.29 µM; in the assay on T-47D breast, 1.7 µM; with A498 renal it was 1.88 µM. Moreover, the TGI stood at 3.29 µM in the assay on SF-268 CNS; 3.32 µM with SF-539 CNS; 19.7 µM in the assay with SNB-19 CNS; 2.95 µM with LOX IMVI melanoma; 3.77 µM in the assay on SN12C renal; 3.35 µM with SW-620 colon. Besides, the TGI in the assay with COLO 205 colon came to 3.92 µM; in the assay with MOLT-4 leukemia, 5 µM; in the assay with T-47D breast, 6.27 µM; in the assay with A498 renal, 8.63 µM.
As for `COc1cc2c(c(OC)c1OC)C(=O)c1c-2n(CCCN=[N+]=[N-])c(=O)c2cc([N+](=O)[O-])ccc12`, the GI50 with SF-268 CNS is 29.8 µM; in the assay with SF-539 CNS it was 39.2 µM; in the assay on SNB-19 CNS, 72.6 µM; with LOX IMVI melanoma, over 100 µM; with SN12C renal, over 100 µM; with SW-620 colon, over 100 µM. Besides, the GI50 in the assay on COLO 205 colon was over 100 µM; in the assay with MOLT-4 leukemia, over 100 µM; in the assay on T-47D breast, over 100 µM; in the assay with A498 renal, 14 µM. Further, the TGI with SF-268 CNS, with SF-539 CNS, in the assay on SNB-19 CNS, in the assay on LOX IMVI melanoma, in the assay with SN12C renal and with SW-620 colon was over 100 µM throughout. In addition, the TGI with COLO 205 colon was over 100 µM; with MOLT-4 leukemia it was over 100 µM; in the assay with T-47D breast, over 100 µM; in the assay on A498 renal, 54.1 µM.
In the case of `C[C@@H]1CC[C@@H]2[C@@H]1[C@H](OC(=O)c1ccc3ccccc3c1)[C@]1(C3CCCCC3)C[C@@H](OC(=O)CO)[C@@]2(C)O1`, the GI50 is 0.542 µM in the assay with SF-268 CNS; 13.7 µM with SF-539 CNS; 14.6 µM in the assay on SNB-19 CNS; 13.1 µM in the assay on LOX IMVI melanoma; 0.0525 µM with SN12C renal; 13 µM with SW-620 colon. The GI50 with COLO 205 colon is 11.2 µM; in the assay with MOLT-4 leukemia, 5.16 µM; in the assay on T-47D breast it was 3.33 µM; in the assay on A498 renal, 0.0191 µM. For the same compound, the TGI with SF-268 CNS is 19.5 µM; in the assay on SF-539 CNS, 27.9 µM; in the assay on SNB-19 CNS, 28.8 µM; in the assay with LOX IMVI melanoma, 28.1 µM; with SN12C renal it was 12.6 µM; in the assay on SW-620 colon it was 30.4 µM. For the same compound, the TGI in the assay on COLO 205 colon worked out at 24.6 µM; in the assay on MOLT-4 leukemia, 21.3 µM; in the assay on T-47D breast it was 15.1 µM; with A498 renal, 0.0679 µM.

Values taken from PubChem BioAssay (NCI).
